Test results: patent US8349333B2, “Allergy inhibitor compositions and kits and methods of using the same” (China Agricultural University, priority 2005, dated 2013)

Key:
cats [1] = experiment: Blood smear cell counts of control cats treated with nitenpyram; assay type: in vivo
Description: (§1) To determine relationship of infestation and FAD symptom, 10 cats were separated into three groups, including an experimental group with six cats and two control groups with two cats each. One control group was treated nitenpyram, and another was not treated with the nitenpyram. Each experimental cat was lived separated on day 0 and infested with 100 fleas. After two days, all cats in this group were given the nitenpyram to remove the flea from their bodies. Two of the control cats were also given this medicine on day 0. This challenge cycle was repeated every other week for 7 times
The anti-coagulant peripheral blood at 2 ml was collected on days 0, 2, 16, 30, 44, 58, 62 from the experiment group and day 0, 14, 28, 42, 56, 60 from the control groups. The same samples were collected after the immunization. A drop of blood was smeared on a clean glass slide. After the smear was dried, the cells were stained with Wright-Giemsa stain for 15 min. After a rinse in deionized water, the smear was gently dried with Kimwipe paper and dehydrated by 96% and 100% ethonol with each 10 seconds treatment. The slide was then treated with xylene for 30 min.
After the staining, nucleus and cytoplasm of blood cell was distinguished by a blue and pink staining. The percentage of each type of cells was counted by a total number of 200 cells in a view under a light microscope.

cats [2] = experiment: Dermatological scores of control cats treated with nitenpyram; assay type: in vivo; conditions: control groups, FIG. 5
Description: as §1
Cats were scored by the dermatological assessments two days after ceasing each infestation. The assessments were included erythema, papules, crusts, scale, alopecia, excoriation. The body of each cat was divided into three portions to assess which part might have the most severe clinical outcome. According the previous documented report, three parts were consisted of: (1) back, from the head to the tail of dorsal surface; (2) double lateral abdomen, from the scapula to the tail; (3) chest and underside, from laryngeal to the caudomedial thighs.

[3] = peripheral blood, control group with nitenpyram, day 58

CCN(Cc1ccc(Cl)nc1)/C(=C/[N+](=O)[O-])NC [nitenpyram]
interference with the cell numbers in the cats' peripheral blood (cats [1]; comparison of the two control groups): not to interfere | Basophils (%) (cats [1]; [3]): 0.7% | Eosinophils (%) (cats [1]; [3]): 3.4% | Lymphocytes (%) (cats [1]; [3]): 21.8% | Monocytes (%) (cats [1]; [3]): 3.6% | Neutrophils (%) (cats [1]; [3]): 70.5% | dermatology score, cats treated with nitenpyram compared with the ones without treatment (cats [2]): no significant difference
